Results reported in US6737383B1, “Herbicidal oxadiazolidines” (priority 1999, dated 2004).

Assays:
[1] = tested on: blackgrass; test: Test B pre/postemergence blackgrass; assay type: in vivo, Alopecurus myosuroides
In short: (§1)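 Herbicidal effect was estimated by eye on a ten-point control scale after plants spent twelve to sixteen days in a greenhouse following soil or foliar treatment. Foliar sprays targeted plants at one to four leaves; all doses were formulated in a non-phytotoxic solvent with surfactant.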

[2] = tested on: surinam grass; test: Test B pre/postemergence surinam grass; assay type: in vivo, Brachiaria decumbens
In short: as §1

[3] = tested on: cocklebur; test: Test B pre/postemergence cocklebur; assay type: in vivo, Xanthium strumarium
In short: as §1

[4] = tested on: corn; test: Test B pre/postemergence corn; assay type: in vivo, Zea mays
In short: as §1

[5] = tested on: morningglory; test: Test B pre/postemergence morningglory; assay type: in vivo, Ipomoea hederacea
In short: as §1

[6] = tested on: pigweed; test: Test B pre/postemergence pigweed; assay type: in vivo, Amaranthus retroflexus
In short: as §1

[7] = tested on: rape; test: Test B pre/postemergence rape; assay type: in vivo, Brassica napus
In short: as §1

[8] = tested on: soybean; test: Test B pre/postemergence soybean; assay type: in vivo, Glycine max
In short: as §1

[9] = tested on: sugar beet; test: Test B pre/postemergence sugar beet; assay type: in vivo, Beta vulgaris
In short: as §1

[10] = tested on: velvetleaf; test: Test B pre/postemergence velvetleaf; assay type: in vivo, Abutilon theophrasti
In short: as §1

[11] = tested on: wild oat; test: Test B pre/postemergence wild oat; assay type: in vivo, Avena fatua
In short: as §1

[12] = tested on: purple nutsedge; test: Test B pre/postemergence purple nutsedge; assay type: in vivo, Cyperus rotundus
In short: as §1

[13] = tested on: rice; test: Test B flood test rice; assay type: in vivo, Oryza sativa
In short: (§2)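 Each value is a visual injury score relative to controls, with 10 meaning complete control and 0 no effect. Evaluation took place twelve to sixteen days after the 2-leaf-stage plants were treated and kept in the greenhouse.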

[14] = tested on: smallflower flatsedge; test: Test B flood test smallflower flatsedge; assay type: in vivo, Cyperus difformis
In short: as §2

[15] = tested on: bamyardgrass; test: Test B flood test barnyardgrass; assay type: in vivo, Echinochloa crus-galli
In short: as §2

[16] = Postemergence, Rate 250 g/ha, scale 0 to 10
[17] = Postemergence, Rate 500 g/ha, scale of 0 to 10 where 0 is no effect and 10 is complete control
[18] = Preemergence, Rate 62 g/ha, scale of 0 to 10 where 0 is no effect and 10 is complete control
[19] = Preemergence, Rate 125 g/ha, scale of 0 to 10 where 0 is no effect and 10 is complete control
[20] = Preemergence, Rate 250 g/ha, scale 0 to 10, 0 is no effect, 10 is complete control
[21] = Preemergence, Rate 500 g/ha, scale 0 to 10, 0 is no effect, 10 is complete control
[22] = Rate 62 g/ha, Postemergence, scale 0 to 10 (0 no effect, 10 complete control)
[23] = Rate 125 g/ha, Postemergence, scale 0 to 10, 0 is no effect, 10 is complete control
[24] = Rate 62 g/ha, flood test species, Pre-emergence, visual evaluation after twelve to sixteen days
[25] = Rate 125 g/ha, under heading Pre-emergence, flood test species, visual evaluation after twelve to sixteen days
[26] = Rate 250 g/ha, Pre-emergence (flood test species), scale 0 to 10, 0 is no effect, 10 is complete control
[27] = Rate 500 g/ha, Pre-emergence, flood test species, scale 0 to 10 (0 no effect, 10 complete control)

In the case of CC(C)N(C(=O)n1oc(=O)n(CNC(=O)c2ccccc2)c1=O)c1ccc(F)cc1 [Compound 445], the “Blackgrass plant response rating” value [1, 16] is reported as 0, the “Blackgrass plant response rating” value [1, 17] is reported as 0 and the “Plant response rating, Blackgrass” value [1, 18] is reported as 0. For the same compound, the “Plant response rating, Blackgrass” value [1, 19] was 0, the “Blackgrass plant response rating” value [1, 20] was 0 and the “Blackgrass plant response rating” value [1, 21] was 1. The “Blackgrass plant response rating” value [1, 22] was 0, the “Blackgrass plant response rating” value [1, 23] was 0 and the “B. signalgrass plant response rating” value ([2]; Postemergence, Rate 250 g/ha, scale 0 to 10, 0 no effect, 10 complete control) was 0. The “B. signalgrass plant response rating” value [2, 17] was 0, the “Plant response rating, B. signalgrass” value [2, 18] was 0 and the “Plant response rating, B. signalgrass” value [2, 19] was 0. The “B. signalgrass plant response rating” value [2, 20] was 2, the “B. signalgrass plant response rating” value [2, 21] was 3 and the “B. signalgrass plant response rating” value [2, 22] was 0. The “B. signalgrass plant response rating” value [2, 23] was 0, the “Cocklebur plant response rating” value [3, 16] was 2 and the “Cocklebur plant response rating” value [3, 17] was 2. The “Plant response rating, Cocklebur” value [3, 18] was 0, the “Plant response rating, Cocklebur” value [3, 19] was 0 and the “Cocklebur plant response rating” value [3, 20] was 0. For the same compound, the “Cocklebur plant response rating” value [3, 22] was 0, the “Cocklebur plant response rating” value [3, 23] was 2 and the “Corn plant response rating” value [4, 16] was 0. For the same compound, the “Corn plant response rating” value [4, 17] was 0, the “Plant response rating, Corn” value [4, 18] was 0 and the “Plant response rating, Corn” value [4, 19] was 0. The “Corn plant response rating” value [4, 20] was 0, the “Corn plant response rating” value [4, 21] was 0 and the “Corn plant response rating” value [4, 22] was 0. The “Corn plant response rating” value [4, 23] was 0, the “Morningglory plant response rating” value [5, 16] was 4 and the “Morningglory plant response rating” value [5, 17] was 8. For the same compound, the “Plant response rating, Morningglory” value [5, 18] was 0, the “Plant response rating, Morningglory” value [5, 19] was 0 and the “Morningglory plant response rating” value [5, 20] was 0. For the same compound, the “Morningglory plant response rating” value [5, 21] was 0, the “Morningglory plant response rating” value [5, 22] was 3 and the “Morningglory plant response rating” value [5, 23] was 4. The “Redroot pigweed plant response rating” value [6, 17] was 4, the “Plant response rating, Redroot pigweed” value [6, 18] was 0 and the “Plant response rating, Redroot pigweed” value [6, 19] was 2. The “Redroot pigweed plant response rating” value [6, 20] was 4, the “Redroot pigweed plant response rating” value [6, 21] was 10 and the “Redroot pigweed plant response rating” value [6, 22] was 0. The “Redroot pigweed plant response rating” value [6, 23] was 0, the “Rape plant response rating” value [7, 16] was 2 and the “Rape plant response rating” value [7, 17] was 2. For the same compound, the “Plant response rating, Rape” value [7, 18] was 0, the “Plant response rating, Rape” value [7, 19] was 0 and the “Rape plant response rating” value [7, 20] was 0. For the same compound, the “Rape plant response rating” value [7, 21] was 2, the “Rape plant response rating” value [7, 22] was 0 and the “Rape plant response rating” value [7, 23] was 0. The “Soybean plant response rating” value [8, 16] was 1, the “Soybean plant response rating” value [8, 17] was 2 and the “Plant response rating, Soybean” value [8, 18] was 0. The “Plant response rating, Soybean” value [8, 19] was 0, the “Soybean plant response rating” value [8, 21] was 0 and the “Soybean plant response rating” value [8, 22] was 1. The “Soybean plant response rating” value [8, 23] was 1, the “Sugarbeets plant response rating” value [9, 16] was 0 and the “Sugarbeets plant response rating” value [9, 17] was 0. For the same compound, the “Plant response rating, Sugarbeets” value [9, 18] was 0, the “Plant response rating, Sugarbeets” value [9, 19] was 0 and the “Sugarbeets plant response rating” value [9, 20] was 0. The “Sugarbeets plant response rating” value [9, 21] was 0, the “Sugarbeets plant response rating” value [9, 22] was 0 and the “Sugarbeets plant response rating” value [9, 23] was 0. The “Velvetleaf plant response rating” value [10, 16] was 3, the “Velvetleaf plant response rating” value [10, 17] was 5 and the “Plant response rating, Velvetleaf” value [10, 18] was 0. The “Plant response rating, Velvetleaf” value [10, 19] was 0, the “Velvetleaf plant response rating” value [10, 20] was 2 and the “Velvetleaf plant response rating” value [10, 21] was 3. The “Velvetleaf plant response rating” value [10, 22] was 0, the “Velvetleaf plant response rating” value [10, 23] was 2 and the “Wild oats plant response rating” value [11, 16] was 0. The “Wild oats plant response rating” value [11, 17] was 0, the “Plant response rating, Wild oats” value [11, 18] was 0 and the “Plant response rating, Wild oats” value [11, 19] was 0. The “Wild oats plant response rating” value [11, 20] was 0, the “Wild oats plant response rating” value [11, 21] was 0 and the “Wild oats plant response rating” value [11, 22] was 0. For the same compound, the “Wild oats plant response rating” value [11, 23] was 0, the “Nutsedge plant response rating” value [12, 16] was 0 and the “Nutsedge plant response rating” value [12, 17] was 0. For the same compound, the “Plant response rating, Nutsedge” value [12, 18] was 0, the “Plant response rating, Nutsedge” value [12, 19] was 0 and the “Nutsedge plant response rating” value [12, 20] was 0. For the same compound, the “Nutsedge plant response rating” value [12, 21] was 0, the “Nutsedge plant response rating” value [12, 22] was 0 and the “Nutsedge plant response rating” value [12, 23] was 0. For the same compound, the “Plant response rating, Rice (0 to 10 scale, 0 is no effect, 10 is complete control)” value [13, 24] was 0, the “Rice plant response rating (0 to 10 scale, 0 is no effect, 10 is complete control)” value [13, 25] was 0 and the “Rice plant response rating” value [13, 26] was 0. The “Rice plant response rating” value [13, 27] was 0, the “Plant response rating, S. Flatsedge (0 to 10 scale, 0 is no effect, 10 is complete control)” value [14, 24] was 0 and the “S. Flatsedge plant response rating (0 to 10 scale, 0 is no effect, 10 is complete control)” value [14, 25] was 0. For the same compound, the “S. Flatsedge plant response rating” value [14, 26] was 0, the “S. Flatsedge plant response rating” value [14, 27] was 0 and the “Plant response rating, Barnyardgrass (0 to 10 scale, 0 is no effect, 10 is complete control)” value [15, 24] was 0. For the same compound, the “Barnyardgrass plant response rating (0 to 10 scale, 0 is no effect, 10 is complete control)” value [15, 25] was 0, the “Barnyardgrass plant response rating” value [15, 26] was 0 and the “Barnyardgrass plant response rating” value [15, 27] was 0.
